Test results reported in patent US8653095B2, “Small molecules with antimalarial activity” (Radix Pharmaceuticals, Inc., priority 2011, dated 2014).
Values joined by “and” are separate entries in the source; they are usually repeats but may differ in a detail not shown here. Identical values can stand only once. “Also recorded” adds a separate entry of the source.

Experiments:
in vivo = conditions: Sprague-Dawley, rat, po; for MTD at 2 weeks: MTD (maximum tolerated dose)
[1] = test system: Plasmodium cynomolgi sporozoite; assay: Causal prophylactic activity in P. cynomolgi sporozoite-challenged Rhesus monkeys; assay type: in vivo; conditions: PO, 15 mg/kg, 1 daily for 3 days, one value per monkey
Excerpt: Two monkeys were used in each test group. The control animals developed parasitemia in about 10 days after inoculation of about 1×10^6 P. cynomolgi sporozoites harvested from Anopheles dirus. All the monkeys received three treatments, once a day for three consecutive days beginning a day before (−1, 0,+1) the sporozoites challenge. The control monkeys (group 1) received HECT and the experimental animals received testing compound by using 8 Fr., 15-in. long nasogastric tubes.

[2] = test system: Liver stage of P. yoelii yoelii; assay: In vitro liver-stage antimalarial efficacy evaluation; assay type: cell-based; conditions: Plasmodium yoelii
Method: In Vitro Liver-Stage Antimalarial Efficacy Evaluation. Any new desirable antimalarial drug should be broad spectrum: it should be active against both the blood stage and the liver stage of the parasite. New compounds were assessed on the Plasmodium yoelii liver stage in vitro. The liver stage of P. yoelii is a parasite of rodent extensively used as an experimental model for studying the initial phase of the malaria infection.

Plasmodium cynomolgi = assay: Radical curative activity in relapsed Rhesus monkeys; assay type: in vivo; conditions: for Monkeys cured: co-administered with chloroquine; for Days post-treatment (relapse) / Results (radical curative test): with CQ 10 mg/kg/day for 7 days, one value per monkey
Excerpt: Compounds with antihypnozoite activity will delay the relapse or radically cure the infection. […] Relapse was expected in the control group. Relapse in the treated group indicates failure of the test compounds. […] After standard treatment, blood smears were monitored daily for 4 consecutive days of negative results and 2 times weekly for 2 weeks.

[3] = Drug 2 at 15 mg/kg PO 1 daily for 3 days
[4] = Drug 2 at 30 mg/kg PO 1 daily for 3 days

| SMILES | NOAEL at 2 weeks (in vivo) | MTD at 2 weeks (in vivo) | Parasite patency (days postinoculation) [1] | IC50 [2] | Monkeys cured (Plasmodium cynomolgi; 15 mg/kg/day level) | Monkeys cured (Plasmodium cynomolgi; 30 mg/kg/day level) | Days post-treatment (relapse) (Plasmodium cynomolgi; [3]) | Results (radical curative test) (Plasmodium cynomolgi; [3]) | Days post-treatment (relapse) (Plasmodium cynomolgi; [4]) | Results (radical curative test) (Plasmodium cynomolgi; [4]) |
| --- | --- | --- | --- | --- | --- | --- | --- | --- | --- | --- |
| CC[C@@H](N)[C@H](O)[C@H](O)[C@H](COC)[C@@H]1CC[C@@]23CC24c2nc5ccc(OC)cc5cc2C(=O)N[C@H]4CN13 (some centres unmarked) [Formula B] | > 100 mg/kg/day | > 500 mg/kg | 41 days and 55 days | 5.8 nM | one out of two monkeys | all monkeys | 42 days and no relapse | delayed relapse; also recorded: radical curative | no relapse | radical curative |
| COC[C@@H]([C@@H](O)[C@@H](O)[C@H](N)Cc1ccccc1)[C@@H]1CC[C@@]23CC24c2nc5ccc(OC)cc5cc2C(=O)N[C@H]4CN13 (some centres unmarked) [Formula C] | > 100 mg/kg/day | > 500 mg/kg | 48 days and 64 days | 7.1 nM | one out of two monkeys | all monkeys | 53 days and no relapse | delayed relapse; also recorded: radical curative | no relapse | radical curative |
